Experiments:
Assay type in all cases: in vivo
Spodoptera littoralis = experiment: Example B9: Spodoptera littoralis (Egyptian cotton leaf worm), cotton leaf discs, L1 larvae; conditions: foliar, 72 h, application rate of 200 ppm, 3 days after infestation, read-out: control in at least one of the three categories (mortality, anti-feedant effect, or growth inhibition)
Procedure: Example B9: Spodoptera littoralis (Egyptian Cotton Leaf Worm)
Cotton leaf discs were placed onto agar in 24-well microtiter plates and sprayed with aqueous test solutions prepared from 10,000 ppm DMSO stock solutions. After drying the leaf discs were infested with five L1 larvae. The samples were assessed for mortality, anti-feeding effect, and growth inhibition in comparison to untreated samples 3 days after infestation. Control of Spodoptera littoralis by a test sample is given when at least one of the categories mortality, anti-feedant effect, and growth inhibition is higher than the untreated sample.

Plutella xylostella = experiment: Example B8: Plutella xylostella (diamond back moth), artificial diet 24-well, eggs; conditions: 192 h, application rate of 200 ppm, 8 days after infestation, read-out: effect in at least one of the two categories (mortality or growth inhibition)
Procedure: Example B8: Plutella xylostella (Diamond Back Moth)
24-well microtiter plates with artificial diet were treated with aqueous test solutions prepared from 10,000 ppm DMSO stock solutions by pipetting. After drying, Plutella eggs were pipetted through a plastic stencil onto a gel blotting paper and the plate was closed with it. The samples were assessed for mortality and growth inhibition in comparison to untreated samples 8 days after infestation.
The following compounds gave an effect of at least 80% in at least one of the two categories (mortality or growth inhibition) at an application rate of 200 ppm: […]

Chilo suppressalis = experiment: Example B1: Chilo suppressalis (striped rice stemborer), artificial diet, L2 larvae; conditions: 144 h, application rate of 200 ppm, 6 days after infestation, read-out: control in at least one of the three categories (mortality, anti-feedant effect, or growth inhibition)
How it was run: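 Artificial diet was treated with aqueous test solutions made from 10,000 ppm DMSO stocks, dried, then infested with L2 larvae (6-8 per well). Mortality, anti-feeding effect and growth inhibition were scored against untreated samples 6 days after infestation, and control was counted when any category exceeded untreated.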

C[C@H](NC(=O)Nc1ccc(C(F)(F)F)cc1I)c1ncnn1-c1ccc(C#N)cn1 [Example P256, 1-[(1S)-1-[2-(5-cyano-2-pyridyl)-1,2,4-triazol-3-yl]ethyl]-3-[2-iodo-4-(trifluoromethyl)phenyl]urea]
≥ 80%: percent control (mortality, anti-feedant effect or growth inhibition) at 200 ppm (Spodoptera littoralis) | percent effect (mortality or growth inhibition) at 200 ppm (Plutella xylostella) | percent control (mortality, anti-feedant effect or growth inhibition) at 200 ppm (Chilo suppressalis)

CC(NC(=O)Nc1ccc(C(F)(F)F)cc1I)c1nccnc1-n1nccn1 (stereo not drawn) [Example P263, 1-[2-iodo-4-(trifluoromethyl)phenyl]-3-[1-[3-(triazol-2-yl)pyrazin-2-yl]ethyl]urea]
≥ 80%: percent control (mortality, anti-feedant effect or growth inhibition) at 200 ppm (Spodoptera littoralis) | percent effect (mortality or growth inhibition) at 200 ppm (Plutella xylostella) | percent control (mortality, anti-feedant effect or growth inhibition) at 200 ppm (Chilo suppressalis)

CNC(=O)c1cnc(-n2ncnc2[C@H](C)NC(=O)Nc2cc(C(F)(F)F)c(Cl)cc2Cl)s1 [Example P395, 2-[5-[(1S)-1-[[2,4-dichloro-5-(trifluoromethyl)phenyl]carbamoyl-amino]ethyl]-1,2,4-triazol-1-yl]-N-methyl-thiazole-5-carboxamide]
≥ 80%: percent control (mortality, anti-feedant effect or growth inhibition) at 200 ppm (Spodoptera littoralis) | percent effect (mortality or growth inhibition) at 200 ppm (Plutella xylostella) | percent control (mortality, anti-feedant effect or growth inhibition) at 200 ppm (Chilo suppressalis)

C[C@H](NC(=O)Nc1cc(OC(F)(F)C(F)F)c(Cl)cc1Cl)c1ncnn1-c1ccc(C#N)cn1 [Example P251, 1-[(1S)-1-[2-(5-cyano-2-pyridyl)-1,2,4-triazol-3-yl]ethyl]-3-[2,4-dichloro-5-(1,1,2,2-tetrafluoroethoxy)phenyl]urea]
≥ 80%: percent control (mortality, anti-feedant effect or growth inhibition) at 200 ppm (Spodoptera littoralis) | percent effect (mortality or growth inhibition) at 200 ppm (Plutella xylostella) | percent control (mortality, anti-feedant effect or growth inhibition) at 200 ppm (Chilo suppressalis)

C[C@H](NC(=O)Nc1ccc(C(F)(F)F)cc1I)c1nccnc1-c1ccc(C#N)cn1 [Example P249, 1-[(1S)-1-[3-(5-cyano-2-pyridyl)pyrazin-2-yl]ethyl]-3-[2-iodo-4-(trifluoromethyl)phenyl]urea]
≥ 80%: percent control (mortality, anti-feedant effect or growth inhibition) at 200 ppm (Spodoptera littoralis) | percent effect (mortality or growth inhibition) at 200 ppm (Plutella xylostella) | percent control (mortality, anti-feedant effect or growth inhibition) at 200 ppm (Chilo suppressalis)

COc1cc(NC(=O)N[C@@H](C)c2ncnn2-c2ncccn2)c(Cl)cc1Cl [Example P265, 1-(2,4-dichloro-5-methoxy-phenyl)-3-[(1S)-1-(2-pyrimidin-2-yl-1,2,4-triazol-3-yl)ethyl]urea]
≥ 80%: percent control (mortality, anti-feedant effect or growth inhibition) at 200 ppm (Spodoptera littoralis) | percent effect (mortality or growth inhibition) at 200 ppm (Plutella xylostella) | percent control (mortality, anti-feedant effect or growth inhibition) at 200 ppm (Chilo suppressalis)

C[C@H](NC(=O)Nc1ccc(Br)cc1OC(F)F)c1nccnc1-c1ccc(C#N)cn1 [Example P247, 1-[4-bromo-2-(difluoromethoxy)phenyl]-3-[(1S)-1-[3-(5-cyano-2-pyridyl)pyrazin-2-yl]ethyl]urea]
≥ 80%: percent control (mortality, anti-feedant effect or growth inhibition) at 200 ppm (Spodoptera littoralis) | percent effect (mortality or growth inhibition) at 200 ppm (Plutella xylostella) | percent control (mortality, anti-feedant effect or growth inhibition) at 200 ppm (Chilo suppressalis)

C[C@H](NC(=O)Nc1cnc(Br)cc1Br)c1nccnc1-c1ccc(C#N)cn1 [Example P248, 1-[(1S)-1-[3-(5-cyano-2-pyridyl)pyrazin-2-yl]ethyl]-3-(4,6-dibromo-3-pyridyl)urea]
≥ 80%: percent control (mortality, anti-feedant effect or growth inhibition) at 200 ppm (Spodoptera littoralis) | percent effect (mortality or growth inhibition) at 200 ppm (Plutella xylostella) | percent control (mortality, anti-feedant effect or growth inhibition) at 200 ppm (Chilo suppressalis)

C[C@H](NC(=O)Nc1ccc(Br)cc1I)c1ncnn1-c1ncccn1 [Example P76, 1-(4-bromo-2-iodo-phenyl)-3-[(1S)-1-(2-pyrimidin-2-yl-1,2,4-triazol-3-yl)ethyl]urea]
≥ 80%: percent control (mortality, anti-feedant effect or growth inhibition) at 200 ppm (Spodoptera littoralis) | percent effect (mortality or growth inhibition) at 200 ppm (Plutella xylostella) | percent control (mortality, anti-feedant effect or growth inhibition) at 200 ppm (Chilo suppressalis)

COc1cc(NC(=O)N[C@@H](C)c2ncnn2-c2ncccn2)c(Cl)cc1Br [Example P351, 1-(4-bromo-2-chloro-5-methoxy-phenyl)-3-[(1S)-1-(2-pyrimidin-2-yl-1,2,4-triazol-3-yl)ethyl]urea]
≥ 80%: percent control (mortality, anti-feedant effect or growth inhibition) at 200 ppm (Spodoptera littoralis) | percent effect (mortality or growth inhibition) at 200 ppm (Plutella xylostella) | percent control (mortality, anti-feedant effect or growth inhibition) at 200 ppm (Chilo suppressalis)

C[C@H](NC(=O)Nc1cc(O)c(Cl)cc1Cl)c1ncnn1-c1ncccn1 [Example P237, 1-(2,4-dichloro-5-hydroxy-phenyl)-3-[(1S)-1-(2-pyrimidin-2-yl-1,2,4-triazol-3-yl)ethyl]urea]
≥ 80%: percent control (mortality, anti-feedant effect or growth inhibition) at 200 ppm (Spodoptera littoralis) | percent effect (mortality or growth inhibition) at 200 ppm (Plutella xylostella) | percent control (mortality, anti-feedant effect or growth inhibition) at 200 ppm (Chilo suppressalis)

C[C@H](NC(=O)Nc1cc(Br)c(F)cc1Cl)c1ncnn1-c1ncccn1 [Example P388, 1-(5-bromo-2-chloro-4-fluoro-phenyl)-3-[(1S)-1-(2-pyrimidin-2-yl-1,2,4-triazol-3-yl)ethyl]urea]
≥ 80%: percent control (mortality, anti-feedant effect or growth inhibition) at 200 ppm (Spodoptera littoralis) | percent effect (mortality or growth inhibition) at 200 ppm (Plutella xylostella) | percent control (mortality, anti-feedant effect or growth inhibition) at 200 ppm (Chilo suppressalis)

C[C@H](NC(=O)Nc1cc(Cl)c(Cl)cc1F)c1ncnn1-c1ncccn1 [Example P118, 1-(4,5-dichloro-2-fluoro-phenyl)-3-[(1S)-1-(2-pyrimidin-2-yl-1,2,4-triazol-3-yl)ethyl]urea]
≥ 80%: percent control (mortality, anti-feedant effect or growth inhibition) at 200 ppm (Spodoptera littoralis) | percent effect (mortality or growth inhibition) at 200 ppm (Plutella xylostella) | percent control (mortality, anti-feedant effect or growth inhibition) at 200 ppm (Chilo suppressalis)

C[C@H](NC(=O)Nc1ccc(Cl)c(C(F)(F)F)c1)c1nccnc1-c1ccc(C#N)cn1 [Example P7, 1-[4-chloro-3-(trifluoromethyl)phenyl]-3-[(1S)-1-[3-(5-cyano-2-pyridyl)pyrazin-2-yl]ethyl]urea]
≥ 80%: percent control (mortality, anti-feedant effect or growth inhibition) at 200 ppm (Spodoptera littoralis) | percent effect (mortality or growth inhibition) at 200 ppm (Plutella xylostella) | percent control (mortality, anti-feedant effect or growth inhibition) at 200 ppm (Chilo suppressalis)

CC(NC(=O)Nc1cnc(C(F)(F)F)cc1Cl)c1nccnc1-n1nccn1 (stereo not drawn) [Example P264, 1-[4-chloro-6-(trifluoromethyl)-3-pyridyl]-3-[1-[3-(triazol-2-yl)pyrazin-2-yl]ethyl]urea]
≥ 80%: percent control (mortality, anti-feedant effect or growth inhibition) at 200 ppm (Spodoptera littoralis) | percent effect (mortality or growth inhibition) at 200 ppm (Plutella xylostella) | percent control (mortality, anti-feedant effect or growth inhibition) at 200 ppm (Chilo suppressalis)

C[C@H](NC(=O)Nc1cc(C(F)(F)F)ccc1Br)c1ncnn1-c1ncccn1 [Example P70, 1-[2-bromo-5-(trifluoromethyl)phenyl]-3-[(1S)-1-(2-pyrimidin-2-yl-1,2,4-triazol-3-yl)ethyl]urea]
≥ 80%: percent control (mortality, anti-feedant effect or growth inhibition) at 200 ppm (Spodoptera littoralis) | percent effect (mortality or growth inhibition) at 200 ppm (Plutella xylostella) | percent control (mortality, anti-feedant effect or growth inhibition) at 200 ppm (Chilo suppressalis)

C[C@H](NC(=O)Nc1cc(F)c(Br)cc1Cl)c1ncnn1-c1ncccn1 [Example P314, 1-(4-bromo-2-chloro-5-fluoro-phenyl)-3-[(1S)-1-(2-pyrimidin-2-yl-1,2,4-triazol-3-yl)ethyl]urea]
≥ 80%: percent control (mortality, anti-feedant effect or growth inhibition) at 200 ppm (Spodoptera littoralis) | percent effect (mortality or growth inhibition) at 200 ppm (Plutella xylostella) | percent control (mortality, anti-feedant effect or growth inhibition) at 200 ppm (Chilo suppressalis)

C[C@H](NC(=O)Nc1cnc(Cl)cc1I)c1ncnn1-c1ncccn1 [Example P271, 1-(6-chloro-4-iodo-3-pyridyl)-3-[(1S)-1-(2-pyrimidin-2-yl-1,2,4-triazol-3-yl)ethyl]urea]
≥ 80%: percent control (mortality, anti-feedant effect or growth inhibition) at 200 ppm (Spodoptera littoralis) | percent effect (mortality or growth inhibition) at 200 ppm (Plutella xylostella) | percent control (mortality, anti-feedant effect or growth inhibition) at 200 ppm (Chilo suppressalis)

C[C@H](NC(=S)Nc1ccc(C(F)(F)F)cc1Cl)c1ncnn1-c1ncccn1 [Example P129, 1-[2-chloro-4-(trifluoromethyl)phenyl]-3-[(1S)-1-(2-pyrimidin-2-yl-1,2,4-triazol-3-yl)ethyl]thiourea]
≥ 80%: percent control (mortality, anti-feedant effect or growth inhibition) at 200 ppm (Spodoptera littoralis) | percent effect (mortality or growth inhibition) at 200 ppm (Plutella xylostella) | percent control (mortality, anti-feedant effect or growth inhibition) at 200 ppm (Chilo suppressalis)

CC(NC(=O)Nc1ccc(C(F)(F)F)cc1I)c1nccnc1-c1ncccn1 (stereo not drawn) [Example P243, 1-[2-iodo-4-(trifluoromethyl)phenyl]-3-[1-(3-pyrimidin-2-ylpyrazin-2-yl)ethyl]urea]
≥ 80%: percent control (mortality, anti-feedant effect or growth inhibition) at 200 ppm (Spodoptera littoralis) | percent effect (mortality or growth inhibition) at 200 ppm (Plutella xylostella) | percent control (mortality, anti-feedant effect or growth inhibition) at 200 ppm (Chilo suppressalis)

C[C@H](NC(=O)Nc1cc(C(F)(F)F)c(Cl)cc1Br)c1ncnn1-c1ccc(C#N)cn1 [Example P253, 1-[2-bromo-4-chloro-5-(trifluoromethyl)phenyl]-3-[(1S)-1-[2-(5-cyano-2-pyridyl)-1,2,4-triazol-3-yl]ethyl]urea]
≥ 80%: percent control (mortality, anti-feedant effect or growth inhibition) at 200 ppm (Spodoptera littoralis) | percent effect (mortality or growth inhibition) at 200 ppm (Plutella xylostella) | percent control (mortality, anti-feedant effect or growth inhibition) at 200 ppm (Chilo suppressalis)

C[C@H](NC(=O)Nc1cc(C(F)(F)F)c(Cl)cc1Cl)c1ncnn1-c1ccc(C#N)cn1 [Example P173, 1-[(1S)-1-[2-(5-cyano-2-pyridyl)-1,2,4-triazol-3-yl]ethyl]-3-[2,4-dichloro-5-(trifluoromethyl)phenyl]urea]
≥ 80%: percent control (mortality, anti-feedant effect or growth inhibition) at 200 ppm (Spodoptera littoralis) | percent effect (mortality or growth inhibition) at 200 ppm (Plutella xylostella) | percent control (mortality, anti-feedant effect or growth inhibition) at 200 ppm (Chilo suppressalis)
